Measured values taken from paper PMC9240354, “Pharmacokinetics, Pharmacodynamics and Antiviral Efficacy of the MEK Inhibitor Zapnometinib in Animal Models and in Humans” (Frontiers in Pharmacology, 2022).
Where two headings read alike, the source gives them in different places.

Tests used:
in vivo [1] = settings: beagle, dog, po, 30 mg/kg
MEK1/2 = assay: phosphorylation of MEK and ERK in PMA-stimulated human PBMCs (Wes); settings: 50 µg/ml 1 h, then 400 nM PMA 30 min
Protocol: PBMCs from healthy donors were isolated, treated with zapnometinib, stimulated with Phorbol-12-Mystrat-13-Acetat (PMA) and analyzed for the reduction of MEK and ERK phosphorylation.
PBMCs of 30 ml human blood were isolated using SepMate^TM tubes (Stemcell Technologies, Vancouver, Canada) by density gradient centrifugation according to manufacturer’s instructions. The PBMCs were then cultured in the plasma and treated with 50 µg/ml zapnometinib or DMSO for 1 h at 37°C and 5% CO2. Afterwards, the PBMCs were stimulated with 400 nM PMA (Sigma-Aldrich, St. Louis, Missouri, USA) for 30 minutes at 37°C and 5% CO2. After stimulation, the cells were washed twice with PBS and centrifuged 8 minutes at 300 x g at RT. The cells were then lysed in 1x RIPA buffer and analyzed with Wes™ for phosphorylation of ERK and MEK using specific antibodies as described in the Pharmacodynamic assessment to determine level of MEK inhibition section. […]
PBMCs of healthy human volunteers were treated for 1 h with 50 µg/ml zapnometinib or DMSO as solvent control and subsequently stimulated for 30 minutes with 400 nM PMA. Cell lysates of the PBMCs were then analyzed with Wes™ for phosphorylated and total protein, and the ratio was used to calculate the phosphorylation levels. […]

[2] = design: method as in Koch-Heier et al., manuscript in preparation; settings: mice, 75 mg/kg; previously unpublished preclinical data; ref Koch-Heier et al., manuscript in preparation; cited from earlier work
[3] = adverse events in healthy human volunteers (phase 1); format: in vivo; settings: n = 8
Excerpt: Healthy men and women between 18 and 55 years of age (inclusive), who weighed at least 50 kg with a body mass index (BMI) between 18.0 and 31.0 kg/m^2 (inclusive) were enrolled in this study. Exclusion criteria were clinically significant illnesses, positive urine test for selected drugs of abuse, positive alcohol breath test at screening and upon check-in at the clinical site, positive hepatitis panel (including hepatitis B surface antigen [HBsAg] and anti-hepatitis C virus [HCV] antibodies), and positive screens for human immunodeficiency virus (HIV) antibody. This Phase 1 study was a randomized, double-blind, placebo-controlled study (clinicaltrials.gov: NCT04385420) consisting of two parts. Part 1 was a SAD study with 40 healthy volunteers who were randomized to active or placebo treatment in a 4:1 ratio (4 cohorts with n (Zapnometinib) = 8; n (placebo) = 2 in each cohort). Subjects receiving active treatment were treated with either 100 mg, 300 mg, 600 mg, or 900 mg zapnometinib. Part 2 was a MAD study with 30 healthy volunteers in three cohorts with the same randomization as in the SAD part (3 cohorts with n (Zapnometinib) = 8; n (placebo) = 2 in each cohort). Each subject in the MAD cohorts received doses of zapnometinib of either 100 mg, 300 mg, or 600 mg once daily for seven days, or placebo. The safety assessment in this study included monitoring of adverse events (AEs), clinical laboratory tests, electrocardiograms (ECG), vital signs, and physical examination. The study protocol and its amendments were reviewed by the Commissie voor Medische Ethiek ZNA, Antwerp, Belgium. This study was conducted in accordance with the ethical principles that have their origin in the Declaration of Helsinki and the International Council for Harmonization of Technical Requirements for Pharmaceuticals for Human Use (ICH) Note for Guidance on Good Clinical Practice (GCP) (CPMP/ICH/135/95) and with applicable local requirements.

[4] = Syrian hamsters
in vivo [5] = settings: Syrian, hamster; for AUC(0-t) / Cmax / Tmax: po
[6] = healthy volunteers, n = 8
human PBMCs = settings: read-out: CC50 cytotoxicity, ref Laure et al., 2020; cited from earlier work

In the case of O=C(O)c1ccc(F)c(F)c1Nc1ccc(I)cc1Cl [zapnometinib, 2-(2-Chloro-4-Iodophenylamino)-N-3,4-Difluoro benzoic acid], the half-life (in vivo [1]) is given as 4 to 5 h, the “phosphorylation of MEK” value (MEK1/2) is given as “directly prevents the phosphorylation of MEK” and the tolerability [2] is given as “well tolerated”. For the same compound, the Abdominal pain ([3]; 100 mg) was 0 n (%), the Back pain ([3]; 100 mg) was 0 n (%) and the Diarrhea ([3]; 100 mg) was 0 n (%). The Dizziness ([3]; 100 mg) was 0 n (%), the Erythema ([3]; 100 mg) was 0 n (%) and the “Gastrointestinal Disorders” value ([3]; 100 mg) was 0 n (%). For the same compound, the Headache ([3]; 100 mg) was 0 n (%), the Hepatic enzyme increase ([3]; 100 mg) was 0 n (%) and the “Infections and Infestations” value ([3]; 100 mg) was 0 n (%). For the same compound, the Investigations ([3]; 100 mg) was 0 n (%), the Nasopharyngitis ([3]; 100 mg) was 0 n (%) and the Neck pain ([3]; 100 mg) was 0 n (%). For the same compound, the “Nervous System Disorders” value ([3]; 100 mg) was 0 n (%), the “Respiratory, thoracic and Mediastinal Disorders” value ([3]; 100 mg) was 0 n (%) and the Rhinorrhea ([3]; 100 mg) was 0 n (%). For the same compound, the “Skin and Subcutaneous Disorders” value ([3]; 100 mg) was 0 n (%), the Throat irritation ([3]; 100 mg) was 0 n (%) and the Abdominal pain ([3]; 300 mg) was 0 n (%). For the same compound, the Back pain ([3]; 300 mg) was 1 (12.5) n (%), the Diarrhea ([3]; 300 mg) was 0 n (%) and the Dizziness ([3]; 300 mg) was 0 n (%). For the same compound, the Erythema ([3]; 300 mg) was 1 (12.5) n (%), the “Gastrointestinal Disorders” value ([3]; 300 mg) was 0 n (%) and the Headache ([3]; 300 mg) was 3 (37.5) n (%). The Hepatic enzyme increase ([3]; 300 mg) was 1 (12.5) n (%), the “Infections and Infestations” value ([3]; 300 mg) was 1 (12.5) n (%) and the Investigations ([3]; 300 mg) was 1 (12.5) n (%). The Nasopharyngitis ([3]; 300 mg) was 1 (12.5) n (%), the Neck pain ([3]; 300 mg) was 1 (12.5) n (%) and the “Nervous System Disorders” value ([3]; 300 mg) was 3 (37.5) n (%). The “Respiratory, thoracic and Mediastinal Disorders” value ([3]; 300 mg) was 1 (12.5) n (%), the Rhinorrhea ([3]; 300 mg) was 1 (12.5) n (%) and the “Skin and Subcutaneous Disorders” value ([3]; 300 mg) was 1 (12.5) n (%). For the same compound, the Throat irritation ([3]; 300 mg) was 0 n (%), the Abdominal pain ([3]; 600 mg) was 0 n (%) and the Back pain ([3]; 600 mg) was 0 n (%). The Diarrhea ([3]; 600 mg) was 0 n (%), the Dizziness ([3]; 600 mg) was 0 n (%) and the Erythema ([3]; 600 mg) was 0 n (%). For the same compound, the “Gastrointestinal Disorders” value ([3]; 600 mg) was 0 n (%), the Headache ([3]; 600 mg) was 1 (12.5) n (%) and the Hepatic enzyme increase ([3]; 600 mg) was 0 n (%). For the same compound, the “Infections and Infestations” value ([3]; 600 mg) was 0 n (%), the Investigations ([3]; 600 mg) was 0 n (%) and the Nasopharyngitis ([3]; 600 mg) was 0 n (%). For the same compound, the Neck pain ([3]; 600 mg) was 0 n (%), the “Nervous System Disorders” value ([3]; 600 mg) was 1 (12.5) n (%) and the “Respiratory, thoracic and Mediastinal Disorders” value ([3]; 600 mg) was 0 n (%). For the same compound, the Rhinorrhea ([3]; 600 mg) was 0 n (%), the “Skin and Subcutaneous Disorders” value ([3]; 600 mg) was 0 n (%) and the Throat irritation ([3]; 600 mg) was 0 n (%). For the same compound, the Abdominal pain ([3]; 900 mg) was 1 (12.5) n (%), the Back pain ([3]; 900 mg) was 0 n (%) and the Diarrhea ([3]; 900 mg) was 1 (12.5) n (%). The Dizziness ([3]; 900 mg) was 0 n (%), the Erythema ([3]; 900 mg) was 1 (12.5) n (%) and the “Gastrointestinal Disorders” value ([3]; 900 mg) was 2 (25.0) n (%). The Headache ([3]; 900 mg) was 1 (12.5) n (%), the Hepatic enzyme increase ([3]; 900 mg) was 0 n (%) and the “Infections and Infestations” value ([3]; 900 mg) was 0 n (%). The Investigations ([3]; 900 mg) was 0 n (%), the Nasopharyngitis ([3]; 900 mg) was 0 n (%) and the Neck pain ([3]; 900 mg) was 0 n (%). The “Nervous System Disorders” value ([3]; 900 mg) was 1 (12.5) n (%), the “Respiratory, thoracic and Mediastinal Disorders” value ([3]; 900 mg) was 1 (12.5) n (%) and the Rhinorrhea ([3]; 900 mg) was 0 n (%). For the same compound, the “Skin and Subcutaneous Disorders” value ([3]; 900 mg) was 1 (12.5) n (%), the Throat irritation ([3]; 900 mg) was 1 (12.5) n (%) and the “mean plasma concentration at 24 h” value ([4]; 15 mg/kg BID p.o.) was 1000 ± 200 ng/mL. For the same compound, the “plasma concentration 12 h after the first treatment” value ([4]; 15 mg/kg BID p.o., before second dose) was 2000 ± 100 ng/mL, the “mean plasma concentration at 24 h” value ([4]; 60 mg/kg OD p.o.) was 200 ± 600 ng/mL and the half-life (in vivo [5]) was 8 h. For the same compound, the AUC(0-t) (in vivo [5]; 15 mg/kg) was 121 ± 4 µg·h/mL, the Cmax (in vivo [5]; 15 mg/kg) was 15000 ± 1000 ng/mL and the Tmax (in vivo [5]; 15 mg/kg) was 3 ± 1 h. For the same compound, the AUC(0-t) (in vivo [5]; 60 mg/kg) was 623 ± 87 µg·h/mL, the Cmax (in vivo [5]; 60 mg/kg) was 61000 ± 2000 ng/mL and the Tmax (in vivo [5]; 60 mg/kg) was 3 ± 1 h. For the same compound, the C24 h ([6]; single oral dose 100 mg) was 1000 ± 400 ng/mL, the C24 h ([6]; single oral dose 300 mg) was 4000 ± 800 ng/mL and the C24 h ([6]; single oral dose 600 mg) was 8000 ± 2000 ng/mL. The C24 h ([6]; single oral dose 900 mg) was 16000 ± 6000 ng/mL and the CC50 (human PBMCs) was 322 µM.
